Reference: PubChem BioAssay (NCI)
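GI50 is the concentration that inhibits growth by half. At the TGI there is no net growth.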

What was measured:
Assay in all cases: inhibition of tumour cell growth, NCI panel, 384-well format
MOLT-4 leukemia = system: MOLT-4 leukemia
SK-MEL-2 melanoma = system: SK-MEL-2 melanoma
SN12C renal = system: SN12C renal
CAKI-1 renal = system: CAKI-1 renal
CCRF-CEM leukemia = system: CCRF-CEM leukemia
SF-539 CNS = system: SF-539 CNS
PC-3 prostate = system: PC-3 prostate
SF-295 CNS = system: SF-295 CNS
UACC-257 melanoma = system: UACC-257 melanoma
OVCAR-4 ovarian = system: OVCAR-4 ovarian
HOP-92 NSCLC = system: HOP-92 NSCLC
MDA-MB-468 breast = system: MDA-MB-468 breast
NCI-H522 lung = system: NCI-H522 lung
TK-10 renal = system: TK-10 renal
786-0 renal = system: 786-0 renal
NCI-H460 NSCLC = system: NCI-H460 NSCLC
ACHN renal = system: ACHN renal
SK-MEL-5 melanoma = system: SK-MEL-5 melanoma
UACC-62 melanoma = system: UACC-62 melanoma
OVCAR-5 ovarian = system: OVCAR-5 ovarian
SK-OV-3 ovarian = system: SK-OV-3 ovarian
MDA-MB-435 melanoma = system: MDA-MB-435 melanoma
MDA-MB-231 breast = system: MDA-MB-231 breast
OVCAR-3 ovarian = system: OVCAR-3 ovarian
UO-31 renal = system: UO-31 renal
IGROV1 ovarian = system: IGROV1 ovarian
HT29 colon = system: HT29 colon
SR leukemia = system: SR leukemia
SNB-19 CNS = system: SNB-19 CNS

Compound: COc1cccc2c1C(=N)c1c(O)c3c(c(O)c1C2=O)C[C@@](O)(C(C)=O)C[C@@H]3O[C@H]1C[C@H](N)[C@H](O)[C@H](C)O1
- GI50 (MOLT-4 leukemia): < 10 nM
- TGI (MOLT-4 leukemia): < 10 nM
- GI50 (SK-MEL-2 melanoma): 184 nM
- TGI (SK-MEL-2 melanoma): 345 nM
- GI50 (SN12C renal): 48.7 nM
- TGI (SN12C renal): 185 nM
- GI50 (CAKI-1 renal): 90.9 nM
- TGI (CAKI-1 renal): 668 nM
- GI50 (CCRF-CEM leukemia): 10.3 nM
- TGI (CCRF-CEM leukemia): 22.8 nM
- GI50 (SF-539 CNS): 36.6 nM
- TGI (SF-539 CNS): 119 nM
- GI50 (PC-3 prostate): 224 nM
- TGI (PC-3 prostate): 1330 nM
- GI50 (SF-295 CNS): 103 nM
- TGI (SF-295 CNS): 345 nM
- GI50 (UACC-257 melanoma): 455 nM
- TGI (UACC-257 melanoma): 1820 nM
- GI50 (OVCAR-4 ovarian): 387 nM
- TGI (OVCAR-4 ovarian): 1370 nM
- GI50 (HOP-92 NSCLC): 62.9 nM
- TGI (HOP-92 NSCLC): 278 nM
- GI50 (MDA-MB-468 breast): 41.8 nM
- TGI (MDA-MB-468 breast): 153 nM
- GI50 (NCI-H522 lung): 55.3 nM
- TGI (NCI-H522 lung): 206 nM
- GI50 (TK-10 renal): 128 nM
- TGI (TK-10 renal): 403 nM
- GI50 (786-0 renal): 86.9 nM
- TGI (786-0 renal): 244 nM
- GI50 (NCI-H460 NSCLC): 28.2 nM
- TGI (NCI-H460 NSCLC): 126 nM
- GI50 (ACHN renal): 120 nM
- TGI (ACHN renal): 567 nM
- GI50 (SK-MEL-5 melanoma): 97.3 nM
- TGI (SK-MEL-5 melanoma): 437 nM
- GI50 (UACC-62 melanoma): 71.6 nM
- TGI (UACC-62 melanoma): 466 nM
- GI50 (OVCAR-5 ovarian): 179 nM
- TGI (OVCAR-5 ovarian): 583 nM
- GI50 (SK-OV-3 ovarian): 88.4 nM
- TGI (SK-OV-3 ovarian): 270 nM
- GI50 (MDA-MB-435 melanoma): 166 nM
- TGI (MDA-MB-435 melanoma): 1090 nM
- GI50 (MDA-MB-231 breast): 181 nM
- TGI (MDA-MB-231 breast): 379 nM
- GI50 (OVCAR-3 ovarian): 102 nM
- TGI (OVCAR-3 ovarian): 353 nM
- GI50 (UO-31 renal): 707 nM
- TGI (UO-31 renal): 2090 nM
- GI50 (IGROV1 ovarian): 343 nM
- TGI (IGROV1 ovarian): 2010 nM
- GI50 (HT29 colon): 119 nM
- TGI (HT29 colon): 250 nM
- GI50 (SR leukemia): < 10 nM
- TGI (SR leukemia): < 10 nM
- GI50 (SNB-19 CNS): 63.3 nM
